Source: patent publication US20240208972A1, “LRRK2 INHIBITORS AND USES THEREOF” (NEURON23, INC., priority 2022, published 2024)

Assay: Human hepatocyte stability, in vitro h-Hept CLpredict
Type: in vitro ADME
Details: cryopreserved hepatocytes, predicted hepatic clearance, cells without asterisk, read-out: hHep Cl
In short: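 Cryopreserved human hepatocytes at 0.5×10^6 viable cells/mL in William's E medium, compound added from 100 μM solution, sampled 0–120 min in duplicate with LC/MS/MS quantitation. t1/2 from parent disappearance converted to CLint, then scaled to predicted hepatic clearance (well-stirred model, fub assumed 1) and extraction ratio.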

CLhep predicted at 1 µM [mL/min/kg]	SMILES
< 6.3	Cc1n[nH]c2c1N=C(c1c(F)cccc1F)Nc1c-2cc(N2CCN(CC(C)F)CC2)nc1C (racemic) [Example 20, 8-(2,6-difluorophenyl)-13-[4-(2-fluoropropyl)piperazin-1-yl]-5,11-dimethyl-3,4,7,9,12-pentazatricyclo[8.4.0.02,6]tetradeca-1(10),2(6),4,7,11,13-hexaene]
6.3 to 14.7	Cc1n[nH]c2c1N=C(c1c(F)cccc1F)Nc1c-2cc(N2CCN(CCF)C[C@H]2C)nc1C (single isomer, unassigned) [Example 18]
< 6.3	Cc1n[nH]c2c1N=C(c1c(F)cccc1F)Nc1cnc(-c3cnn(C(F)F)c3)cc1-2 [Example 1, 9-(1-(difluoromethyl)-1H-pyrazol-4-yl)-5-(2,6-difluorophenyl)-3-methyl-1,6-dihydropyrazolo[4,3-d]pyrido[4,3-f][1,3]diazepine]
6.3 to 14.7	Cc1n[nH]c2c1N=C(c1c(F)cccc1F)Nc1c-2cc(N2CCN(CC(C)(C)F)CC2)nc1C [Example 5, 5-(2,6-difluorophenyl)-9-(4-(2-fluoro-2-methylpropyl)piperazin-1-yl)-3,7-dimethyl-1,6-dihydropyrazolo[4,3-d]pyrido[4,3-f][1,3]diazepine]
6.3 to 14.7	Cc1n[nH]c2c1N=C(c1c(F)cccc1F)Nc1ccc(N3CCO[C@H](C)C3)cc1-2 [Example 7, (R)-4-(5-(2,6-difluorophenyl)-3-methyl-1,6-dihydrobenzo[d]pyrazolo[3,4-f][1,3]diazepin-9-yl)-2-methylmorpholine]
6.3 to 14.7	Cc1n[nH]c2c1N=C(c1c(F)cccc1F)Nc1c-2cc(N2CCOCC2)nc1C [Example 8, 4-[8-(2,6-difluorophenyl)-5,11-dimethyl-3,4,7,9,12-pentazatricyclo[8.4.0.02,6]tetradeca-1(10),2(6),4,7,11,13-hexaen-13-yl]morpholine]
< 6.3	Cc1n[nH]c2c1N=C(c1c(F)cccc1F)Nc1c-2cc(N2CCN(CCF)CC2)nc1C [Example 9, 8-(2,6-difluorophenyl)-13-[4-(2-fluoroethyl)piperazin-1-yl]-5,11-dimethyl-3,4,7,9,12-pentazatricyclo[8.4.0.02,6]tetradeca-1(10),2(6),4,7,11,13-hexaene]
6.3 to 14.7	Fc1cccc(F)c1C1=Nc2c(C(F)F)n[nH]c2-c2cc(N3CCOCC3)ncc2N1 [Example 10, 4-[5-(difluoromethyl)-8-(2,6-difluorophenyl)-3,4,7,9,12-pentazatricyclo[8.4.0.02,6]tetradeca-1(10),2(6),4,7,11,13-hexaen-13-yl]morpholine]
< 6.3	Cc1n[nH]c2c1N=C(c1c(F)cccc1F)Nc1cnc(-c3ccn(C(F)F)n3)cc1-2 [Example 12, 13-[1-(difluoromethyl)pyrazol-3-yl]-8-(2,6-difluorophenyl)-5-methyl-3,4,7,9,12-pentazatricyclo[8.4.0.02,6]tetradeca-1(10),2(6),4,7,11,13-hexaene]
6.3 to 14.7	Cc1n[nH]c2c1N=C(c1c(F)cccc1F)Nc1ccc(-c3cnn(C(F)F)c3)cc1-2 [Example 13, 9-[1-(difluoromethyl)pyrazol-4-yl]-5-(2,6-difluorophenyl)-3-methyl-1,6-dihydropyrazolo[4,3-d][1,3]benzodiazepine]
> 14.7	Cc1n[nH]c2c1N=C(c1c(F)cccc1F)Nc1cnc(C#CC3(C)CCOCC3)cc1-2 [Example 17, 8-(2,6-difluorophenyl)-5-methyl-13-[2-(4-methyltetrahydropyran-4-yl)ethynyl]-3,4,7,9,12-pentazatricyclo[8.4.0.02,6]tetradeca-1(10),2(6),4,7,11,13-hexaene]
6.3 to 14.7	Cc1n[nH]c2c1N=C(c1c(F)cccc1F)Nc1c-2cc(N2CCN(CC(F)F)CC2)nc1C [Example 19, 13-[4-(2,2-difluoroethyl)piperazin-1-yl]-8-(2,6-difluorophenyl)-5,11-dimethyl-3,4,7,9,12-pentazatricyclo[8.4.0.02,6]tetradeca-1(10),2(6),4,7,11,13-hexaene]
6.3 to 14.7	[2H]C1([2H])OC([2H])([2H])C([2H])([2H])N(c2ccc3c(c2)-c2[nH]nc(C)c2N=C(c2c(F)cccc2F)N3)C1([2H])[2H] [Example 22, 2,2,3,3,5,5,6,6-octadeuterio-4-[5-(2,6-difluorophenyl)-3-methyl-1,6-dihydropyrazolo[4,3-d][1,3]benzodiazepin-9-yl]morpholine]
6.3 to 14.7	Cc1n[nH]c2c1N=C(c1c(F)cccc1F)Nc1c-2cc(N2CCN(CC(F)(F)F)CC2)nc1C [Example 23, 5-(2,6-difluorophenyl)-3,7-dimethyl-9-(4-(2,2,2-trifluoroethyl)piperazin-1-yl)-1,6-dihydropyrazolo[4,3-d]pyrido[4,3-f][1,3]diazepine]
< 6.3	Cc1n[nH]c2c1N=C(c1c(F)cccc1F)Nc1ccc(N3CCN(CCF)CC3)cc1-2 [Example 25, 5-(2,6-difluorophenyl)-9-[4-(2-fluoroethyl)piperazin-1-yl]-3-methyl-1,6-dihydropyrazolo[4,3-d][1,3]benzodiazepine]
< 6.3	Cc1n[nH]c2c1N=C(c1c(F)cccc1F)Nc1ccc(N3CCO[C@@H](C)C3)cc1-2 [Example 26, (S)-4-(5-(2,6-difluorophenyl)-3-methyl-1,6-dihydrobenzo[d]pyrazolo[3,4-f][1,3]diazepin-9-yl)-2-methylmorpholine]
6.3 to 14.7	Cc1n[nH]c2c1N=C(c1c(F)cc(F)cc1F)Nc1ccc(N3CCOCC3)cc1-2 [Example 27, 4-[3-methyl-5-(2,4,6-trifluorophenyl)-1,6-dihydropyrazolo[4,3-d][1,3]benzodiazepin-9-yl]morpholine]
< 6.3	Cc1n[nH]c2c1N=C(c1c(F)cccc1F)Nc1cc(F)c(N3CCOCC3)cc1-2 [Example 28, 4-[5-(2,6-difluorophenyl)-8-fluoro-3-methyl-1,6-dihydropyrazolo[4,3-d][1,3]benzodiazepine-9-yl]morpholine]
6.3 to 14.7	Cc1n[nH]c2c1N=C(c1c(F)cccc1F)Nc1ccc(N3CCOCC3)cc1-2 [Example 29, 4-(5-(2,6-difluorophenyl)-3-methyl-1,6-dihydrobenzo[d]pyrazolo[3,4-f][1,3]diazepin-9-yl)morpholine]
6.3 to 14.7	Cc1n[nH]c2c1N=C(c1c(F)cccc1F)Nc1c(F)cc(N3CCOCC3)cc1-2 [Example 30, 4-(5-(2,6-difluorophenyl)-7-fluoro-3-methyl-1,6-dihydrobenzo[d]pyrazolo[3,4-f][1,3]diazepin-9-yl)morpholine]
< 6.3	CCc1n[nH]c2c1N=C(c1c(F)cccc1F)Nc1cnc(N3CCOCC3)cc1-2 [Example 31, 4-[8-(2,6-difluorophenyl)-5-ethyl-3,4,7,9,12-pentazatricyclo[8.4.0.02,6]tetradeca-1(10),2(6),4,7,11,13-hexaen-13-yl]morpholine]
< 6.3	[2H]C([2H])([2H])c1n[nH]c2c1N=C(c1c(F)cccc1F)Nc1cnc(N3CCOCC3)cc1-2 [Example 32, 4-[8-(2,6-difluorophenyl)-5-(trideuteriomethyl)-3,4,7,9,12-pentazatricyclo[8.4.0.02,6]tetradeca-1(10),2(6),4,7,11,13-hexaen-13-yl]morpholine]
< 6.3	[2H]C([2H])([2H])c1n[nH]c2c1N=C(c1c(F)cccc1F)Nc1ccc(N3CCOCC3)cc1-2 [Example 33, 4-[5-(2,6-difluorophenyl)-3-(trideuteriomethyl)-1,6-dihydropyrazolo[4,3-d][1,3]benzodiazepin-9-yl]morpholine]
< 6.3	[2H]C([2H])([2H])c1n[nH]c2c1N=C(c1c(F)cccc1F)Nc1ccc(N3CCO[C@@H](C)C3)cc1-2 [Example 34, (2S)-4-[5-(2,6-difluorophenyl)-3-(trideuteriomethyl)-1,6-dihydropyrazolo[4,3-d][1,3]benzodiazepin-9-yl]-2-methyl-morpholine]
< 6.3	Cc1n[nH]c2c1N=C(c1c(F)cccc1F)Nc1c-2cc(N2CCO[C@@H](C)C2)nc1C [Example 40, (S)-4-(5-(2,6-difluorophenyl)-3,7-dimethyl-1,6-dihydropyrazolo[4,3-d]pyrido[4,3-f][1,3]diazepin-9-yl)-2-methylmorpholine]
6.3 to 14.7	Cc1n[nH]c2c1N=C(c1c(F)cccc1F)N1CCc3nc(N4CCOCC4)cc-2c31 [Example 42, 4-[8-(2,6-difluorophenyl)-5-methyl-3,4,7,9,13-pentazatetracyclo[7.6.1.02,6.012,16]hexadeca-1(16),2(6),4,7,12,14-hexaen-14-yl]morpholine]
6.3 to 14.7	Cc1n[nH]c2c1N=C(c1c(F)cccc1F)Nc1cnc(N3CCO[C@@H](C(F)(F)F)C3)cc1-2 [Example 55, (2R)-4-[8-(2,6-difluorophenyl)-5-methyl-3,4,7,9,12-pentazatricyclo[8.4.0.02,6]tetradeca-1(10),2(6),4,7,11,13-hexaen-13-yl]-2-(trifluoromethyl)morpholine]
6.3 to 14.7	Cn1nccc1-c1cc2c(cn1)NC(c1c(F)cccc1F)=Nc1c(Cl)n[nH]c1-2 [Example 59, 3-chloro-5-(2,6-difluorophenyl)-9-(1-methyl-1H-pyrazol-5-yl)-1,6-dihydropyrazolo[4,3-d]pyrido[4,3-f][1,3]diazepine]

SMILES	CLhep predicted at 1 µM [mL/min/kg]
Cc1n[nH]c2c1N=C(c1c(F)cccc1F)Nc1c-2cc(N2CC3(CCOCC3)C2)nc1C [Example 47, 2-[8-(2,6-difluorophenyl)-5,11-dimethyl-3,4,7,9,12-pentazatricyclo[8.4.0.02,6]tetradeca-1(10),2(6),4,7,11,13-hexaen-13-yl]-7-oxa-2-azaspiro[3.5]nonane]	6.3 to 14.7
